In patent US6825230B2, “Spiro and dispiro 1,2,4-trixolane antimalarials” (Medicines for Malaria Venture MMV, priority 2002, dated 2004):
In brackets after ≈: the same amount, converted by molar mass. Read-outs that look alike come from different tables or passages of the source.

What was measured:
[1] = test system: chloroquine-resistant K1 strain of P. falciparum; assay: In vitro antimalarial semiautomated microdilution assay ([3H]-hypoxanthine incorporation), K1 strain; assay type: cell-based, Plasmodium falciparum; details: for IC50: Plasmodium falciparum
In short: (§1)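 IC50 comes from Logit regression of [3H]-hypoxanthine incorporation data. Intraerythrocytic P. falciparum taken from asynchronous stock cultures is exposed to OZ compounds in a semiautomated microdilution format.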

[2] = test system: chloroquine-sensitive NF54 strain of P. falciparum; assay: In vitro antimalarial semiautomated microdilution assay ([3H]-hypoxanthine incorporation), NF54 strain; assay type: cell-based, Plasmodium falciparum; details: for IC50: Plasmodium falciparum
In short: as §1

[3] = test system: ANKA strain of P. berghei; assay: Single dose STI in vivo screen in infected mice; parameters: species or system Plasmodium berghei; details: for Survival (days) 10 mg/kg po: single 10 mg/kg po in 3% ethanol and 7% Tween 80; for Survival (days) 10 mg/kg po / Survival (days) 10 mg/kg SSV po / Survival (days) 10 mg/kg sc: untreated 6-7 days; for Activity (%) 10 mg/kg po: single 10 mg/kg po in 3% ethanol and 7% Tween 80 on day 1 post-infection; for Activity (%) 10 mg/kg po / Activity (%) 10 mg/kg SSV po / Activity (%) 10 mg/kg sc: percent reduction in parasitemia on day 3; for Survival (days) 10 mg/kg SSV po: single 10 mg/kg po in SSV; for Activity (%) 10 mg/kg SSV po: single 10 mg/kg po in standard suspending vehicle (SSV) on day 1 post-infection; for Survival (days) 10 mg/kg sc: single 10 mg/kg sc in 3% ethanol and 7% Tween 80; for Activity (%) 10 mg/kg sc: single 10 mg/kg sc in 3% ethanol and 7% Tween 80 on day 1 post-infection
[4] = test system: Schistosoma mansoni 21-day-old schistosomules; assay: Effect on 21-day-old schistosomules in infected mice; assay type: in vivo; details: for % reduction of schistosomule growth at day 21 after per os application of 200 mg/kg, FWR (%): female worm reduction rate
Procedure: Mice were infected with 100 Schistosoma mansoni cercariae on day 21 post-treatment. Each group was treated per os with trioxolanes at a single dose of 200 mg/kg. […] All groups were killed 4 weeks after treatment and the liver and intestine were removed and separated. The liver and intestine were compressed and alive male and female worms could be seen and counted. The effect of the compounds was evaluated by mean total and female worm burden.

[5] = test system: Schistosoma mansoni adult worms (49-day-old); assay: Effect on adult schistosomes (49-day-old) in infected mice; assay type: in vivo; details: for % reduction of adult worms growth at day 49 after per os application of 400 mg/kg, TWR (%) / Adult worms day 49, per os 400 mg/kg, DEAD WORM (%): single 400 mg/kg per os
Procedure: Mice were infected with 100 Schistosoma mansoni cercariae on day 49 post-treatment. Each group was treated per os with OZ compounds at single doses of 200, 400, and 600 mg/kg. Untreated mice served as the control. All groups were killed 4 weeks after treatment and the liver and intestine were removed and separated. The liver and intestine were compressed and alive male and female worms could be seen and counted.

[6] = chloroquine-resistant K1 strain, 72 h incubation, read-out: IC50 (ng/ml) K1
[7] = chloroquine-sensitive NF54 strain, 72 h incubation, read-out: IC50 (ng/ml) NF54
[8] = single 200 mg/kg per os, 21-day-old schistosomules
[9] = single 200 mg/kg per os, 21-day-old schistosomules, total worm reduction rate
[10] = 49-day-old adults, total worm reduction rate
[11] = percentage of dead worm in the liver
[12] = K1, 72 h, read-out: IC50 (ng/ml) K1, chloroquine-resistant K1 strain, 72 h incubation
[13] = NF54, 72 h, read-out: IC50 (ng/ml) NF54, chloroquine-sensitive NF54 strain, 72 h incubation

Row | SMILES | % reduction of schistosomule growth at day 21 after per os application of 200 mg/kg, FWR (%) [4, 8] [%] | % reduction of schistosomule growth at day 21 after per os application of 200 mg/kg, TWR (%) [4, 9] [%] | % reduction of adult worms growth at day 49 after per os application of 400 mg/kg, TWR (%) [5, 10] | Adult worms day 49, per os 400 mg/kg, DEAD WORM (%) [5, 11] | IC50 [2, 13] [ng/mL] | Survival (days) 10 mg/kg po [3] [days] | Activity (%) 10 mg/kg po [3] [%] | Survival (days) 10 mg/kg SSV po [3] [days] | Activity (%) 10 mg/kg SSV po [3] [%] | Survival (days) 10 mg/kg sc [3] [days] | Activity (%) 10 mg/kg sc [3] [%] | also measured
1 | c1cn(C[C@H]2CC[C@]3(CC2)OOC2(O3)C3CC4CC(C3)CC2C4)cn1 (stereo partly drawn) [OZ145] | 83 |  |  |  |  |  |  |  |  |  |  | IC50 [1, 6]: 0.5 ng/mL (≈ 1.45 nM); IC50 [2, 7]: 0.76 ng/mL (≈ 2.21 nM); Survival (days) 10 mg/kg po ([3]; 10 mg/kg): 8.3 days; Activity (%) 10 mg/kg po ([3]; 10 mg/kg): 99.82%; Survival (days) 10 mg/kg SSV po ([3]; 10 mg/kg): 10.7 days; Activity (%) 10 mg/kg SSV po ([3]; 10 mg/kg): 99.21%; Survival (days) 10 mg/kg sc ([3]; 10 mg/kg): 10.7 days; Activity (%) 10 mg/kg sc ([3]; 10 mg/kg): 99.87%; % reduction of schistosomule growth at day 21 after per os application of 200 mg/kg, TWR (%) ([4]; po, 200 mg/kg, 504 h): 80%
2 | CON=C1CCC2(CC1)OOC1(O2)C2CC3CC(C2)CC1C3 (stereo not drawn) [OZ15] | 70 | 63 | 0% | 10% |  |  |  |  |  |  |  | 
3 | O=[N+]([O-])c1ccc(NN=C2CCC3(CC2)OOC2(O3)C3CC4CC(C3)CC2C4)c([N+](=O)[O-])c1 (stereo not drawn) [OZ29] | 20 | 28 | 0/0% | 0/0% |  |  |  |  |  |  |  | 
4 | OC1CCC2(CC1)OOC1(O2)C2CC3CC(C2)CC1C3 (stereo not drawn) [OZ32] | 70 | 73 | 27% | 28% |  |  |  |  |  |  |  | 
5 | c1ccc(CNC2CCC3(CC2)OOC2(O3)C3CC4CC(C3)CC2C4)cc1 (stereo not drawn) [OZ160] | 0 | 0 |  |  | 0.87 (≈ 2.35 nM) | 6.3 | 45 | 6.7 | 43 | 12.0 | 99.94 | IC50 [1, 12]: 0.7 ng/mL (≈ 1.89 nM)
6 | C1COC2(CCC3(CC2)OOC2(O3)C3CC4CC(C3)CC2C4)O1 (stereo not drawn) [OZ10] | 73 | 66 | 28% | 13% |  |  |  |  |  |  |  | % reduction of adult worms growth at day 49 after per os application of 600 mg/kg, TWR (%) ([5]; single 600 mg/kg per os, 49-day-old adults, total worm reduction rate): 21%; Adult worms day 49, per os 600 mg/kg, DEAD WORM (%) ([5]; single 600 mg/kg per os, percentage of dead worm in the liver): 23%
7 | O=C(O)C1CCC2(CC1)OOC1(O2)C2CC3CC(C2)CC1C3 (stereo not drawn) [OZ71] | 85 | 91 | 0% |  |  |  |  |  |  |  |  | Adult worms day 49, per os 400 mg/kg, DEAD WORM (%) ([5]; percentage of dead worm in the liver, listed as OZ 71): 16%
8 | CN1CCN(C(=O)N2CCC3(CC2)OOC2(O3)C3CC4CC(C3)CC2C4)CC1 (stereo not drawn) [OZ157, Adamantane-2-spiro-3′-8′-[(4′-methyl-1′-piperazinyl)carbonyl]-1′,2′,4′-trioxa-8′-azaspiro[4.5]decane] | 68 | 65 |  |  | 0.22 (≈ 0.562 nM) | 7.3 | 90 | 8.3 | 80 | 8.3 | 97 | IC50 [1, 12]: 0.2 ng/mL (≈ 0.511 nM)
9 | OC[C@H]1CC[C@]2(CC1)OOC1(O2)C2CC3CC(C2)CC1C3 (stereo partly drawn) [OZ119] | 87 |  |  |  |  | 7.7 | 99.29 | 8.0 | 99.15 | 8.3 | 99.66 | IC50 [1, 6]: 0.83 ng/mL (≈ 2.82 nM); IC50 [2, 7]: 0.2 ng/mL (≈ 0.679 nM); % reduction of schistosomule growth at day 21 after per os application of 200 mg/kg, TWR (%) ([4]; po, 200 mg/kg, 504 h): 88%
10 | C1CCC2(CC1)OOC1(O2)C2CC3CC(C2)CC1C3 (stereo not drawn) [OZ03] | 74 |  | 29% | 8% |  |  |  |  |  |  |  | % reduction of schistosomule growth at day 21 after per os application of 200 mg/kg, TWR (%) ([4]; po, 200 mg/kg, 504 h): 74%
11 | O=[N+]([O-])c1ccc(N2CCC3(CC2)OOC2(O3)C3CC4CC(C3)CC2C4)cc1 (stereo not drawn) [OZ151, Adamantane-2-spiro-3′-8′-(4′-nitrophenyl)-1′,2′,4′-trioxa-8′-azaspiro[4.5]decane] | 19 |  |  |  |  | 7.3 | 71 | 7.3 | 71 | 11.0 | 99.63 | IC50 [1, 6]: 3.8 ng/mL (≈ 9.83 nM); IC50 [2, 7]: 4 ng/mL (≈ 10.4 nM); % reduction of schistosomule growth at day 21 after per os application of 200 mg/kg, TWR (%) ([4]; po, 200 mg/kg, 504 h): 19%
12 | OC12CC3CC(C1)C1(OOC4(CCC5(CC4)OCCO5)O1)C(C3)C2 (stereo not drawn) [OZ152, 5-Hydroxyadamantane-2-spiro-3′-1′,2′,4′,9′,12′-pentaoxadispiro[4.2.4.2]tetradecane] | 11 | 19 |  |  |  | 6.3 |  |  |  |  |  | IC50 (ng/ml) K1 ([1]; chloroquine-resistant K1 strain, 72 h incubation): 3.2 ng/mL (≈ 9.46 nM); IC50 (ng/ml) NF54 ([2]; chloroquine-sensitive NF54 strain, 72 h incubation): 7.2 ng/mL (≈ 21.3 nM); Activity (%) 10 mg/kg po ([3]; 10 mg/kg): 0%; Survival (days) 10 mg/kg SSV po ([3]; 10 mg/kg): 6.7 days; Activity (%) 10 mg/kg SSV po ([3]; 10 mg/kg): 12%; Survival (days) 10 mg/kg sc ([3]; 10 mg/kg): 6.7 days; Activity (%) 10 mg/kg sc ([3]; 10 mg/kg): 22%
13 | C1C2CC3CC1CC(C2)C31OOC2(CCC3(CC2)OOC2(O3)C3CC4CC(C3)CC2C4)O1 (stereo not drawn) [OZ169, Adamantane-2-spiro-3′-1′,2′,4′,9′,10′,12′-hexaoxadispiro[4.2.4.2]tetradecane-11′-spiro-2″-adamantane] | 0 | 0 |  |  | > 10 | 7.7 | 98 | 6.7 | 22 | 9.0 | 99.76 | IC50 [1, 12]: 15 ng/mL (≈ 33.7 nM)
14 | NC[C@H]1CC[C@]2(CC1)OOC1(O2)C2CC3CC(C2)CC1C3 (stereo partly drawn) [OZ163] | 80 |  |  |  | 0.2 (≈ 0.682 nM) |  |  |  |  |  |  | Survival (days) 10 mg/kg po ([3]; hydrochloride, 10 mg/kg): 8.0 days; Activity (%) 10 mg/kg po ([3]; hydrochloride, 10 mg/kg): 99.90%; Survival (days) 10 mg/kg SSV po ([3]; hydrochloride, 10 mg/kg): 9.0 days; Activity (%) 10 mg/kg SSV po ([3]; hydrochloride, 10 mg/kg): 99.94%; Survival (days) 10 mg/kg sc ([3]; hydrochloride, 10 mg/kg): 9.7 days; Activity (%) 10 mg/kg sc ([3]; hydrochloride, 10 mg/kg): 100%
15 | C1CCN(C2CCC3(CC2)OOC2(O3)C3CC4CC(C3)CC2C4)CC1 (stereo not drawn) [OZ159] | 19 | 19 |  |  | 0.94 (≈ 2.71 nM) | 6.7 | 34 | 6.7 | 31 | 9.0 | 98 | IC50 [1, 12]: 0.7 ng/mL (≈ 2.01 nM)
